Structures are written as SMILES.

For the test, the target named is T1, hP2X3 (human Purinergic P2X receptors subtype 3), clone B (Homo sapiens, UniProt P56373).
T1 sequence (P56373 1-397): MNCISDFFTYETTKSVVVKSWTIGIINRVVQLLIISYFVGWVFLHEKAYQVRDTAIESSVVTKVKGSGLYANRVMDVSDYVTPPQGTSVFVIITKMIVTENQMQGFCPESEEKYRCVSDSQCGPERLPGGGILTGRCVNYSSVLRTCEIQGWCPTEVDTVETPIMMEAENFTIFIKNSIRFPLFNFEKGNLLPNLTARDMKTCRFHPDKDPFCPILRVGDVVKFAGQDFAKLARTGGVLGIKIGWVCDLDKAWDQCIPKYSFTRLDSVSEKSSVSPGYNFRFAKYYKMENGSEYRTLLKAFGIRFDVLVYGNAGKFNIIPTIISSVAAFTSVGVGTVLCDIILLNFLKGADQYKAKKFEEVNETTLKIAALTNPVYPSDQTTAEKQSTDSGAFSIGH
In words: hP2X3 FLIPR calcium (Fluo-4) antagonist assay, clone B. The following applies: Human P2X3 FLIPR Clone B IC50 (nM), RLE cells expressing hP2X3 clone B (NM_002559); agonist 500 nM α,β-methylene-ATP.
On to `CCN1CCN(c2nc(NC3c4cccnc4CCc4c(F)cccc43)c3c(n2)C(=O)N(C(C)C)C3)CC1` (centres unmarked) [Example 120, 2-(4-ethylpiperazin-1-yl)-4-[(9-fluoro-10,11-dihydro-5H-benzo[4,5]cyclohepta[1,2-b]pyridin-5-yl)amino]-6-isopropyl-5,6-dihydro-7H-pyrrolo[3,4-d]pyrimidin-7-one], for which the IC50 stood at 1400 nM.
The result for `CC(=O)N1CCN(c2nc3c(c(N4CCOC(C)(c5ccc(Cl)cc5)C4)n2)CN(C(C)C)C3=O)CC1` (centres unmarked) [Example 123, 2-(4-acetylpiperazin-1-yl)-4-[2-(4-chlorophenyl)-2-methylmorpholin-4-yl]-6-isopropyl-5,6-dihydro-7H-pyrrolo[3,4-d]pyrimidin-7-one] reads 9100 nM; that for `CC(C)C(=O)N1CCN(c2nc(NC(C)(C)Cc3ccc(Cl)cc3)c3c(n2)C(=O)N(C(C)C)C3)CC1` [Example 124, 4-{[2-(4-chlorophenyl)-1,1-dimethylethyl]amino}-2-(4-isobutyrylpiperazin-1-yl)-6-isopropyl-5,6-dihydro-7H-pyrrolo[3,4-d]pyrimidin-7-one], 3000 nM.
For `CC(C)N1Cc2c(NC(C)(C)Cc3ccc(Cl)cc3)nc(N3CCN(C(=O)C(C)(C)C)CC3)nc2C1=O` [Example 125, 4-{[2-(4-chlorophenyl)-1,1-dimethylethyl]amino}-2-[4-(2,2-dimethylpropanoyl)piperazin-1-yl]-6-isopropyl-5,6-dihydro-7H-pyrrolo[3,4-d]pyrimidin-7-one], the IC50 amounted to 3800 nM.
The result for `CC(C)N1Cc2c(NC(C)(C)Cc3ccc(Cl)cc3)nc(N3CCN(C(=O)C4CC4)CC3)nc2C1=O` [Example 126, 4-{[2-(4-chlorophenyl)-1,1-dimethylethyl]amino}-2-[4-(cyclopropylcarbonyl)piperazin-1-yl]-6-isopropyl-5,6-dihydro-7H-pyrrolo[3,4-d]pyrimidin-7-one] reads 2300 nM; that for `CC(C)N1Cc2c(NC(C)(C)Cc3ccc(Cl)cc3)nc(N3CCN(C(=O)N(C)C)CC3)nc2C1=O` [Example 127, 4-(4-{[2-(4-chlorophenyl)-1,1-dimethylethyl]amino}-6-isopropyl-7-oxo-6,7-dihydro-5H-pyrrolo[3,4-d]pyrimidin-2-yl)-N,N-dimethylpiperazine-1-carboxamide], 2200 nM.
For the compound `CC(C)N1Cc2c(NC(C)(C)Cc3ccc(Cl)cc3)nc(N3CCN(C=O)CC3)nc2C1=O` [Example 128, 4-(4-{[2-(4-chlorophenyl)-1,1-dimethylethyl]amino}-6-isopropyl-7-oxo-6,7-dihydro-5H-pyrrolo[3,4-d]pyrimidin-2-yl)piperazine-1-carbaldehyde], the 50% inhibitory concentration (IC50) worked out at 280 nM.
The value for `CC(=O)N1CCN(c2nc3c(c(N4CCCC4Cc4ccc(F)cc4)n2)CN(C(C)C)C3=O)CC1` (centres unmarked) [Example 129, 2-(4-Acetylpiperazin-1-yl)-4-[2-(4-fluorobenzyl)-pyrrolidin-1-yl]-6-isopropyl-5H-pyrrolo[3,4-d]pyrimidin-7(6H)-one] was 150 nM.
The value for `CC(=O)N1CCN(c2nc(NC3CCc4cc(Cl)ccc43)c3c(n2)C(=O)N(C(C)C)C3)CC1` (centres unmarked) [Example 133, 2-(4-Acetylpiperazin-1-yl)-4-(5-chloro-2,3-dihydro-1H-inden-1-ylamino)-6-isopropyl-5H-pyrrolo[3,4-d]pyrimidin-7(6H)-one] was 4200 nM.
The result for `CC(C)N1Cc2c(NCc3cnc4ccccc4c3)nc(N3CCN4C(=O)CCC4C3)nc2C1=O` (centres unmarked) [Example 135, 6-Isopropyl-2-(6-oxohexahydropyrrolo[1,2-a]pyrazin-2(1H)-yl)-4-(quinolin-3-ylmethylamino)-5H-pyrrolo[3,4-d]pyrimidin-7(6M)-one] reads 870 nM.
Take `CC(C)N1Cc2c(NCc3cnc4ccccc4c3)nc(N3CCn4cnnc4C3)nc2C1=O` [Example 137, 2-(5,6-Dihydro-[1,2,4]triazolo[4,3-a]pyrazin-7(8H)-yl)-6-isopropyl-4-(quinolin-3-ylmethylamino)-5H-pyrrolo[3,4-d]pyrimidin-7(6H)-one]: the IC50 is 680 nM.
The result for `CC(=O)N1CCN(c2nc(NC(C)(C)Cc3ccc(F)cc3)c3c(n2)C(=O)N(C(C)C)C3)C(C)C1` (centres unmarked) [Example 139, 2-(4-Acetyl-2-methyl-piperazin-1-yl)-4-[2-(4-fluoro-phenyl)-1,1-dimethyl-ethylamino]-6-isopropyl-5,6-dihydro-pyrrolo[3,4-d]pyrimidin-7-one] reads 1000 nM; that for `CC(=O)N1CCN(c2nc(NCc3cc(C(C)(C)C)[nH]n3)c3c(n2)C(=O)N(C(C)C)C3)CC1` [Example 143, 4-(4-acetylpiperazin-1-yl)-8-propan-2-yl-2-[(5-tert-butyl-1H-pyrazol-3-yl)methylamino]-3,5,8-triazabicyclo[4.3.0]nona-1,3,5-trien-7-one], 160 nM; that for `CC(=O)N1CCN(c2nc(NCc3nc(-c4ccccc4)no3)c3c(n2)C(=O)N(C(C)C)C3)CC1` [Example 145, 4-(4-acetylpiperazin-1-yl)-2-[(3-phenyl-1,2,4-oxadiazol-5-yl)methylamino]-8-propan-2-yl-3,5,8-triazabicyclo[4.3.0]nona-1,3,5-trien-7-one], 3200 nM.
The result for `CC(=O)N1CCN(c2nc(NCc3n[nH]c4c3CCC4)c3c(n2)C(=O)N(C(C)C)C3)CC1` [Example 151, 4-(4-acetylpiperazin-1-yl)-2-(6,7-diazabicyclo[3.3.0]octa-7,9-dien-8-ylmethylamino)-8-propan-2-yl-3,5,8-triazabicyclo[4.3.0]nona-1,3,5-trien-7-one] reads 940 nM; that for `CC(=O)N1CCN(c2nc(NCc3cn(C4CCCC4)nc3C)c3c(n2)C(=O)N(C(C)C)C3)CC1` [Example 152, 4-(4-acetylpiperazin-1-yl)-2-[(1-cyclopentyl-3-methyl-pyrazol-4-yl)methylamino]-8-propan-2-yl-3,5,8-triazabicyclo[4.3.0]nona-2,4,10-trien-7-one], 270 nM; that for `CC(=O)N1CCN(c2nc(NCc3cc(-c4ccccc4)n(C)n3)c3c(n2)C(=O)N(C(C)C)C3)CC1` [Example 153, 4-(4-acetylpiperazin-1-yl)-2-[(1-methyl-5-phenyl-pyrazol-3-yl)methylamino]-8-propan-2-yl-3,5,8-triazabicyclo[4.3.0]nona-1,3,5-trien-7-one], 120 nM.
The result for `CC(=O)N1CCN(c2nc(NCc3cc(-c4ccccc4)nn3C)c3c(n2)C(=O)N(C(C)C)C3)CC1` [Example 154, 4-(4-acetylpiperazin-1-yl)-2-[(2-methyl-5-phenyl-pyrazol-3-yl)methylamino]-8-propan-2-yl-3,5,8-triazabicyclo[4.3.0]nona-1,3,5-trien-7-one] reads 160 nM; that for `CC(=O)N1CCN(c2nc(NCc3cn4ccccc4n3)c3c(n2)C(=O)N(C(C)C)C3)CC1` [Example 155, 4-(4-acetylpiperazin-1-yl)-2-(1,7-diazabicyclo[4.3.0]nona-2,4,6,8-tetraen-8-ylmethylamino)-8-propan-2-yl-3,5,8-triazabicyclo[4.3.0]nona-1,3,5-trien-7-one], 500 nM.
As for `CCOc1cccc([C@@H](C)Nc2nc(N3CCN(C(C)=O)CC3)nc3c2CN(C(C)C)C3=O)c1` [Example 156, (R)-2-(4-acetylpiperazin-1-yl)-4-(1-(3-ethoxyphenyl)ethylamino)-6-isopropyl-5H-pyrrolo[3,4-d]pyrimidin-7(6H)-one], the IC50 was determined as 830 nM.
On to `CCOc1ccc(C(C)N(C)c2nc(N3CCN(C(C)=O)CC3)nc3c2CN(C(C)C)C3=O)cc1` (centres unmarked) [Example 157, 2-(4-acetylpiperazin-1-yl)-4-((1-(4-ethoxyphenyl)ethyl)(methyl)amino)-6-isopropyl-5H-pyrrolo[3,4-d]pyrimidin-7(6H)-one], for which the 50% inhibitory concentration (IC50) was determined as 390 nM.
The value for `CC(=O)N1CCN(c2nc(N[C@H](C)c3ccc4c(c3)CCO4)c3c(n2)C(=O)N(C(C)C)C3)CC1` [Example 160, (R)-2-(4-acetylpiperazin-1-yl)-4-(1-(2,3-dihydrobenzofuran-5-yl)ethylamino)-6-isopropyl-5H-pyrrolo[3,4-d]pyrimidin-7(6H)-one] was 320 nM.
The value for `CC(=O)N1CCN(c2nc(N[C@H](C)c3ccc(C(C)(C)C#N)cc3)c3c(n2)C(=O)N(C(C)C)C3)CC1` [Example 161, (R)-2-(4-(1-(2-(4-acetylpiperazin-1-yl)-6-isopropyl-7-oxo-6,7-dihydro-5H-pyrrolo[3,4-d]pyrimidin-4-ylamino)ethyl)phenyl)-2-methylpropanenitrile] was 720 nM.
In the case of `CCOc1ccc(CN(CC2CC2)c2nc(N3CCN(C(C)=O)CC3)nc3c2CN(C(C)C)C3=O)cc1` [Example 162, 2-(4-acetylpiperazin-1-yl)-4-((cyclopropylmethyl)(4-ethoxybenzyl)amino)-6-isopropyl-5H-pyrrolo[3,4-d]pyrimidin-7(6H)-one], the IC50 was found to be 950 nM.
The result for `CC(=O)N1CCN(c2nc(NC(C)c3ccc(C(C)(C)C#N)c(F)c3)c3c(n2)C(=O)N(C(C)C)C3)CC1` (centres unmarked) [Example 163, 2-(4-(1-(2-(4-acetylpiperazin-1-yl)-6-isopropyl-7-oxo-6,7-dihydro-5H-pyrrolo[3,4-d]pyrimidin-4-ylamino)ethyl)-2-fluorophenyl)-2-methylpropanenitrile] reads 1700 nM.
Turning to `CCOc1ccc([C@@H](C)Nc2nc(N3CCN(C(C)=O)CC3)nc3c2CN(C(C)C)C3=O)cc1C` [Example 167, (R)-2-(4-acetylpiperazin-1-yl)-4-(1-(4-ethoxy-3-methylphenyl)ethylamino)-6-isopropyl-5H-pyrrolo[3,4-d]pyrimidin-7(6H)-one], the IC50 came out at 65 nM.

(Values after patent US20090099195A1 (ASTRAZENECA AB, priority 2007, published 2009).)
